Assay results published in PubChem BioAssay AID256 (DTP/NCI, 2004).
“And” between values parts separate entries of the source, which are not always exact repeats. Equal entries are not always repeated. Toxic doses and inconclusive results are not listed. How the source made its calls: active means survival T/C of 150% or more; inactive means T/C below 125% in these data.

Tested on: CD2F1 mice, L1210 leukemia ip, survival T/C
Assay: NCI In Vivo Anticancer Drug Screen. Data for tumor model L1210 Leukemia (intraperitoneal) in CD2F1 (CDF1) mice
Details: higher = longer survival
In short: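 Antitumor effect is scored in animals hosting a serially transplanted tumor. Values compare compound-dosed animals against vehicle-only controls as a simple quotient.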

[1] = endpoint: mean survival time, dose: 75.0 mg/kg/injection, schedule: Q01DX001 (ip), vehicle: saline
[2] = endpoint: mean survival time, dose: 150.0 mg/kg/injection, schedule: Q01DX001 (ip), vehicle: saline
[3] = endpoint: mean survival time, dose: 300.0 mg/kg/injection, schedule: Q01DX001 (ip), vehicle: saline
[4] = endpoint: mean survival time, dose: 50.0 mg/kg/injection, schedule: Q01DX009 (ip), vehicle: saline with Tween-80
[5] = endpoint: mean survival time, dose: 100.0 mg/kg/injection, schedule: Q01DX009 (ip), vehicle: saline with Tween-80
[6] = endpoint: mean survival time, dose: 200.0 mg/kg/injection, schedule: Q01DX009 (ip), vehicle: saline with Tween-80
[7] = endpoint: mean survival time, dose: 100.0 mg/kg/injection, schedule: Q04DX003 (ip), vehicle: saline with Tween-80
[8] = endpoint: mean survival time, dose: 200.0 mg/kg/injection, schedule: Q04DX003 (ip), vehicle: saline with Tween-80
[9] = endpoint: mean survival time, dose: 400.0 mg/kg/injection, schedule: Q04DX003 (ip), vehicle: saline with Tween-80

Measured: T/C

O=C1CC2OCC=C3CN4CCC5(C(=O)O)C(N1)C2C3CC45 (stereo not drawn)
inactive: [1] 106 % of control | [2] 100 % of control | [3] 100 % of control

NC(=O)CCl
inactive: endpoint: mean survival time, dose: 100.0 mg/kg/injection, schedule: Q04DX003 (ip), vehicle: saline 110 % of control

O=[N+]([O-])c1ccc(S(=O)(=O)c2ccc([N+](=O)[O-])cc2)cc1
inactive: [4] 93 % of control | [5] 93 % of control | [6] 93 % of control

C=CS(C=C)=NS(=O)(=O)c1ccc(C)cc1
inactive: endpoint: mean survival time, dose: 1.56 mg/kg/injection, schedule: Q01DX009 (ip), vehicle: Klucel (hydroxypropylcellulose) (HPC) 97 % of control and 107 % of control | endpoint: mean survival time, dose: 3.12 mg/kg/injection, schedule: Q01DX009 (ip), vehicle: Klucel (hydroxypropylcellulose) (HPC) 100 % of control and 105 % of control | endpoint: mean survival time, dose: 6.25 mg/kg/injection, schedule: Q01DX009 (ip), vehicle: Klucel (hydroxypropylcellulose) (HPC) 95 % of control and 103 % of control | endpoint: mean survival time, dose: 12.5 mg/kg/injection, schedule: Q01DX009 (ip), vehicle: Klucel (hydroxypropylcellulose) (HPC) 100 % of control and 107 % of control | endpoint: mean survival time, dose: 25.0 mg/kg/injection, schedule: Q01DX009 (ip), vehicle: Klucel (hydroxypropylcellulose) (HPC) 97 % of control and 105 % of control

COc1cc2ccc3c(c2cc1OC)C(=O)CNC3C (stereo not drawn)
inactive: endpoint: mean survival time, dose: 3.13 mg/kg/injection, schedule: Q01DX009 (ip), vehicle: saline 105 % of control | endpoint: mean survival time, dose: 6.25 mg/kg/injection, schedule: Q01DX009 (ip), vehicle: saline 98 % of control | endpoint: mean survival time, dose: 12.5 mg/kg/injection, schedule: Q01DX009 (ip), vehicle: saline 104 % of control

C[N+]1(C)CC2CCCCC1C2=O (stereo not drawn)
inactive: [1] 111 % of control | [2] 101 % of control | [3] 98 % of control

Cc1cnnc(N(C)N)c1
inactive: endpoint: mean survival time, dose: 12.5 mg/kg/injection, schedule: Q04DX002 (ip), vehicle: saline 107 % of control | endpoint: mean survival time, dose: 25.0 mg/kg/injection, schedule: Q04DX002 (ip), vehicle: saline 114 % of control | endpoint: mean survival time, dose: 50.0 mg/kg/injection, schedule: Q04DX002 (ip), vehicle: saline 96 % of control

O=C(c1ccc(-c2ccccc2)cc1)c1no[n+]([O-])c1C(=O)c1ccc(-c2ccccc2)cc1
inactive: [5] 96 % of control | [7] 86 % of control | [6] 93 % of control | [8] 98 % of control | [9] 88 % of control

CN(C)C(=S)NNC(=O)c1ccc(Cl)cc1
inactive: endpoint: mean survival time, dose: 25.0 mg/kg/injection, schedule: Q01DX001 (ip), vehicle: saline with Tween-80 98 % of control

N/C(=N/O)NO
inactive: endpoint: median survival time, dose: 50.0 mg/kg/injection, schedule: Q01DX005 (ip), vehicle: saline 109 % of control | endpoint: median survival time, dose: 100.0 mg/kg/injection, schedule: Q01DX005 (ip), vehicle: saline 110 % of control and 112 % of control | endpoint: median survival time, dose: 200.0 mg/kg/injection, schedule: Q01DX005 (ip), vehicle: saline 120 % of control and 123 % of control

CCCCNC(C)(C)C(SS)c1cccs1 (stereo not drawn)
inactive: endpoint: mean survival time, dose: 66.0 mg/kg/injection, schedule: Q01DX009 (ip), vehicle: other 101 % of control | endpoint: mean survival time, dose: 150.0 mg/kg/injection, schedule: Q01DX009 (ip), vehicle: other 108 % of control | endpoint: mean survival time, dose: 200.0 mg/kg/injection, schedule: Q01DX009 (ip), vehicle: other 94 % of control | endpoint: mean survival time, dose: 400.0 mg/kg/injection, schedule: Q01DX009 (ip), vehicle: other 92 % of control

N=C(N)c1ccc(OCCCOc2ccc(NC(=O)Nc3ccc(S(=O)(=O)F)cc3)cc2)cc1
inactive: endpoint: mean survival time, dose: 50.0 mg/kg/injection, schedule: Q01DX001 (ip), vehicle: saline with Tween-80 95 % of control | endpoint: mean survival time, dose: 100.0 mg/kg/injection, schedule: Q01DX001 (ip), vehicle: saline with Tween-80 89 % of control | endpoint: mean survival time, dose: 200.0 mg/kg/injection, schedule: Q01DX001 (ip), vehicle: saline with Tween-80 93 % of control

O=C(Nc1ccccc1)OC1CCCCC1OC(=O)Nc1ccccc1 (stereo not drawn)
inactive: endpoint: mean survival time, dose: 400.0 mg/kg/injection, schedule: Q01DX001 (ip), vehicle: saline with Tween-80 86 % of control

c1ccc2c(c1)OP(OP1Oc3ccccc3O1)O2
inactive: endpoint: mean survival time, dose: 25.0 mg/kg/injection, schedule: Q01DX009 (ip), vehicle: saline with Tween-80 98 % of control | [4] 98 % of control | [5] 107 % of control | endpoint: mean survival time, dose: 100.0 mg/kg/injection, schedule: Q04DX003 (ip), vehicle: acetone 103 % of control

CC1(C)CC(=O)C2(C)CCC3(CC2C1)OCCO3 (stereo not drawn)
inactive: [7] 96 % of control | [8] 96 % of control | [9] 96 % of control

O=C(N/N=C\c1cc(Cl)ccc1[N+](=O)[O-])c1ccccc1
inactive: endpoint: mean survival time, dose: 100.0 mg/kg/injection, schedule: Q01DX009 (ip), vehicle: Klucel (hydroxypropylcellulose) (HPC) 100 % of control | endpoint: mean survival time, dose: 200.0 mg/kg/injection, schedule: Q01DX009 (ip), vehicle: Klucel (hydroxypropylcellulose) (HPC) 91 % of control | endpoint: mean survival time, dose: 400.0 mg/kg/injection, schedule: Q01DX009 (ip), vehicle: Klucel (hydroxypropylcellulose) (HPC) 94 % of control

Cc1cc(Cl)ccc1[NH-].Cc1cc(Cl)ccc1[NH-].[Cl][Pt+2][Cl]
inactive: endpoint: mean survival time, dose: 25.0 mg/kg/injection, schedule: Q04DX003 (ip), vehicle: saline with Tween-80 100 % of control | endpoint: mean survival time, dose: 50.0 mg/kg/injection, schedule: Q04DX003 (ip), vehicle: saline with Tween-80 94 % of control | [7] 94 % of control | [8] 94 % of control | [9] 97 % of control

COC(=O)C(CS)NC(=O)CCNC(C)=O (stereo not drawn)
inactive: endpoint: mean survival time, dose: 12.5 mg/kg/injection, schedule: Q01DX009 (ip), vehicle: water 97 % of control | endpoint: mean survival time, dose: 25.0 mg/kg/injection, schedule: Q01DX009 (ip), vehicle: water 100 % of control | endpoint: mean survival time, dose: 50.0 mg/kg/injection, schedule: Q01DX009 (ip), vehicle: water 97 % of control | endpoint: mean survival time, dose: 100.0 mg/kg/injection, schedule: Q01DX009 (ip), vehicle: water 104 % of control | endpoint: mean survival time, dose: 200.0 mg/kg/injection, schedule: Q01DX009 (ip), vehicle: water 100 % of control
